Assay results from EP4603105A1, “PHARMACEUTICAL COMPOSITION CONTAINING CYCLIC COMPOUND HAVING SELECTIVE KRAS INHIBITORY EFFECT AGAINST HRAS AND NRAS” (CHUGAI SEIYAKU KABUSHIKI KAISHA, priority 2022, dated 2024).
Read-outs that look alike come from different tables or passages of the source.

Experiments:
[1] = target: GDP-bound KRAS wild-type protein (Homo sapiens, UniProt P01116); experiment: Binding to KRAS by surface plasmon resonance (SPR), dissociation constant KD
Procedure, shortened: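 Recombinant RAS proteins bearing a biotinylated Avi tag and loaded with GDP served as the captured ligand, recaptured fresh every cycle. Binding responses were referenced to an uncoated surface and a buffer-only blank cycle. Dissociation constants were obtained by 1:1 model fitting at 30°C.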

[2] = target: GDP-bound NRAS wild-type protein (Homo sapiens, UniProt P01111); experiment: Binding to NRAS by surface plasmon resonance (SPR), KD and KD ratio to KRAS
Procedure, shortened: (§1)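 SPR, 30°C: Avi-biotin RAS·GDP captured via Biotin CAPture (~100–300 RU); running buffer HBS pH 7.4, 1 mM DTT, 10 mM MgCl2, 0.01% Tween 20, 10 µM GDP, 4% DMSO. Single-cycle kinetics, 100 µL/min, 75 s injections; 1:1 model → KD.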

HRAS wild-type protein = HRAS wild-type protein (Homo sapiens, UniProt P01112); experiment: Binding to HRAS by surface plasmon resonance (SPR), KD and KD ratio to KRAS
Procedure, shortened: as §1

[3] = test system: human lung cancer strain NCI-H441; experiment: NCI-H441 cell proliferation inhibitory activity (CellTiter-Glo, 4 days); type: cell-based; conditions: read-out: NCl-H441 IC50
Procedure, shortened: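 Proliferation was scored by […] measured after the reagent was added to cultures kept at 37°C in 5% carbon dioxide.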

[4] = ratio of KD for GDP-bound NRAS wild-type protein to KD for KRAS
[5] = ratio of KD for HRAS wild-type protein to KD for KRAS
[6] = Single Cycle Kinetics, 1:1 binding model
[7] = ratio of KD with respect to GDP-bound NRAS wild-type protein to KD with respect to KRAS
[8] = ratio of KD with respect to HRAS wild-type protein to KD with respect to KRAS
[9] = 50% proliferation inhibitory concentration, four days

HRAS wild-type protein, sequence (P01112 whole entry): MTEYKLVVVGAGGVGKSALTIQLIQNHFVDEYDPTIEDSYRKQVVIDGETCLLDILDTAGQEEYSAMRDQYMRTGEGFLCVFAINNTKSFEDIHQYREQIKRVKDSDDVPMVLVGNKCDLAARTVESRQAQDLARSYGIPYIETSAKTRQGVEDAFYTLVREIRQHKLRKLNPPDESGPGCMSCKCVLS
GDP-bound KRAS wild-type protein, sequence (P01116 1-188 isoform P01116-2): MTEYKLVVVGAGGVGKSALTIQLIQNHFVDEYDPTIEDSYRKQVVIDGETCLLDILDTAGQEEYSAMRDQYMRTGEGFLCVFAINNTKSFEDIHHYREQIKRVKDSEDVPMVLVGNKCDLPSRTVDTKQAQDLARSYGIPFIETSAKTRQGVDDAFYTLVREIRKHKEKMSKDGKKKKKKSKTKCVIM
GDP-bound NRAS wild-type protein, sequence (P01111 whole entry): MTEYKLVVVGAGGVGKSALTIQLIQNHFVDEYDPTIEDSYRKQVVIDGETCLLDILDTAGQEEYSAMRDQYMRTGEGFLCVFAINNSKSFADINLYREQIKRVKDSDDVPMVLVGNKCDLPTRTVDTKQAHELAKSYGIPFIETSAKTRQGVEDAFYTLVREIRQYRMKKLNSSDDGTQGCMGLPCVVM

Row | Compound | Kd ([1]; Single Cycle Kinetics) | NRAS /KRAS [2, 4] | HRAS /KRAS (HRAS wild-type protein; [5]) | IC50 ([3]; NCI-H441 cells, 4 days) | Kd ([1]; 1:1 binding model) | Kd [1, 6] | NRAS /KRAS [2, 7] | HRAS /KRAS (HRAS wild-type protein; [8]) | IC50 [3, 9]
1 | CCc1cc(CC[C@@H]2NC(=O)CN(C)C(=O)[C@H](Cc3ccc(C(F)F)cc3)N3CC/C=C\C[C@@H](C3=O)N(C)C(=O)CN(C)C(=O)[C@H]([C@@H](C)OC)NC(=O)[C@H](CC)N(C)C(=O)C[C@@H](C(=O)N(C)C)N(C)C(=O)[C@H](C(CC)CC)N(C)C(=O)C3(CCC3)N(C)C(=O)[C@@H]3C[C@@H](OC(C)C)CN3C2=O)ccc1C(F)(F)F [PP3500] | 0.31 nM | A (a compound having 10 or more and less than 20 is denoted as A) | A (a compound having 10 or more and less than 20 is denoted as A) | 12.2 nM | – | – | – | – | –
2 | CCC[C@H]1C(=O)N[C@@H]([C@@H](C)CC)C(=O)N(C)CC(=O)N(C)[C@H]2C/C=C\CCN(C2=O)[C@@H](Cc2ccc(C(F)(F)F)cc2)C(=O)N(C)CC(=O)N[C@@H](CCc2cc(F)c(C(F)(F)F)c(F)c2)C(=O)N2CC3(CC3)C[C@H]2C(=O)NC2(CCC2)C(=O)N(C)[C@@H](C2CCCC2)C(=O)N(C)[C@H](C(=O)N(C)C)CC(=O)N1C [PP3436] | 0.059 nM | A (a compound having 10 or more and less than 20 is denoted as A) | A (a compound having 10 or more and less than 20 is denoted as A) | 4.6 nM | – | – | – | – | –
3 | CCC[C@H]1C(=O)N[C@@H](CC(C)C)C(=O)N2C[C@@H](OC)C[C@H]2C(=O)N(C)[C@H]2C/C=C\CCN(C2=O)[C@@H](Cc2ccc(C)cc2)C(=O)N(C)CC(=O)N[C@@H](CCc2ccc(C(F)(F)F)c(OC)c2)C(=O)N2C[C@H](OCC)C[C@H]2C(=O)NC2(CCC2)C(=O)N(C)[C@@H](C2CCCC2)C(=O)N(C)[C@H](C(=O)N(C)C)CC(=O)N1C [PP2548] | – | A (a compound having 10 or more and less than 20 is denoted as A) | B (a compound having 3 or more and less than 10 is denoted as B) | 1050 nM | 7.8 nM | – | – | – | –
4 | CCO[C@@H]1C[C@H]2C(=O)NC3(CCC3)C(=O)N(C)[C@@H](C3CCCC3)C(=O)N(C)[C@H](C(=O)N(C)C)CC(=O)N(C)[C@@H](CC(C)C)C(=O)N[C@@H]([C@@H](C)CC)C(=O)N(C)CC(=O)N(C)[C@H]3C/C=C\CCN(C3=O)[C@@H](CC3CCCCC3)C(=O)N(C)CC(=O)N[C@@H](CCc3cc(F)c(C(F)(F)F)c(F)c3)C(=O)N2C1 [PP1467] | – | – | – | – | – | 0.12 nM | A (a compound having 10 or more and less than 20 is denoted as A) | A (a compound having 10 or more and less than 20 is denoted as A) | 11.2 nM
5 | CCO[C@@H]1C[C@H]2C(=O)NC3(CCC3)C(=O)N(C)[C@@H](C3CCCC3)C(=O)N(C)[C@H](C(=O)N3CCOCC3)CC(=O)N(C)[C@@H](C)C(=O)N[C@@H]([C@@H](C)CC)C(=O)N(C)CC(=O)N(C)[C@H]3CCCCCN(C3=O)[C@@H](Cc3ccc(F)cc3)C(=O)N(C)CC(=O)N[C@@H](CCc3cc(F)c(C(F)(F)F)c(F)c3)C(=O)N2C1 [PP1175] | – | – | – | – | – | 0.16 nM | B (a compound having 3 or more and less than 10 is denoted as B) | B (a compound having 3 or more and less than 10 is denoted as B) | 23.5 nM
6 | CCC[C@H]1C(=O)N[C@@H]([C@@H](C)CC)C(=O)N(C)CC(=O)N(C)[C@H]2C/C=C\CCN(C2=O)[C@@H](Cc2ccc(C)cc2)C(=O)N(C)CC(=O)N[C@@H](CCc2ccc(C(F)(F)F)c(OC)c2)C(=O)N2C[C@H](OCC)C[C@H]2C(=O)NC2(CC(C)(C)C2)C(=O)N(C)[C@@H](CC2CCC2)C(=O)N(C)[C@H](C(=O)N(C)C)CC(=O)N1C [PP2753] | – | A (a compound having 10 or more and less than 20 is denoted as A) | B (a compound having 3 or more and less than 10 is denoted as B) | 52 nM | 0.97 nM | – | – | – | –
7 | CCO[C@@H]1C[C@H]2C(=O)NC3(CCCC3)C(=O)N(C)[C@@H](C3CCCC3)C(=O)N(C)[C@H](C(=O)N(C)C)CC(=O)N(C)[C@@H](CC)C(=O)N[C@@H]([C@@H](C)CC)C(=O)N(C)CC(=O)N(C)[C@H]3CC[C@@H](C)CN(C3=O)[C@@H](Cc3ccc(C(F)(F)F)cc3)C(=O)N(C)CC(=O)N[C@@H](CCc3cc(F)c(C(F)(F)F)c(F)c3)C(=O)N2C1 [PP1370] | – | – | – | – | – | 0.057 nM | C (A compound having a KD ratio of 0.1 or more and less than 3 is denoted as C) | C (A compound having a KD ratio of 0.1 or more and less than 3 is denoted as C) | 2.3 nM
8 | CCC[C@H]1C(=O)N[C@@H]([C@@H](C)CC)C(=O)N(C)CC(=O)N(C)[C@H]2C/C=C\CCN(C2=O)[C@@H](Cc2ccc(C(F)(F)F)cc2)C(=O)N(C)CC(=O)N[C@@H](CCc2ccc(C(F)(F)F)c(Cl)c2)C(=O)N2CC3(CC3)C[C@H]2C(=O)NC2(CCC2)C(=O)N(C)[C@@H](C2CCCC2)C(=O)N(C)[C@H](C(=O)N(C)C)CC(=O)N1C [PP3440] | 0.047 nM | AA (a compound having 20 or more is denoted as AA) | A (a compound having 10 or more and less than 20 is denoted as A) | 12.1 nM | – | – | – | – | –
9 | CCC[C@H]1C(=O)N[C@@H]([C@@H](C)CC)C(=O)N(C2CC2)CC(=O)N(C)[C@H]2C/C=C\CCN(C2=O)[C@@H](Cc2ccc(C)cc2)C(=O)N(C)CC(=O)N[C@@H](CCc2ccc(Cl)c(Cl)c2)C(=O)N2C[C@H](OC3CCC3)C[C@H]2C(=O)NC2(CC(C)(C)C2)C(=O)N(C)[C@@H](C2CCCC2)C(=O)N(C)[C@H](C(=O)N(C)C)CC(=O)N1C [PP2616] | – | A (a compound having 10 or more and less than 20 is denoted as A) | A (a compound having 10 or more and less than 20 is denoted as A) | 66.4 nM | 0.8 nM | – | – | – | –
10 | CCC[C@H]1C(=O)N[C@@H](CC(C)C)C(=O)N(CCOC)CC(=O)N(C)[C@H]2C/C=C\CCN(C2=O)[C@@H](Cc2ccc(C)cc2)C(=O)N(C)CC(=O)N[C@@H](CCc2ccc(C(F)(F)F)c(Cl)c2)C(=O)N2C[C@H](OCC)C[C@H]2C(=O)NC2(CCC2)C(=O)N(C)[C@@H](C2CCCC2)C(=O)N(C)[C@H](C(=O)N(C)C)CC(=O)N1C [PP2546] | – | B (a compound having 3 or more and less than 10 is denoted as B) | B (a compound having 3 or more and less than 10 is denoted as B) | 295 nM | 4.7 nM | – | – | – | –
11 | CCCOC[C@@H]1NC(=O)C[C@@H](C(=O)N(C)CCC)N(C)C(=O)[C@H](C2CCCC2)N(C)C(=O)C2(CC(C)(C)C2)NC(=O)[C@@H]2C[C@@H](OCC)CN2C(=O)[C@H](CCc2ccc(C(F)(F)F)c(OC)c2)NC(=O)CN(C)C(=O)[C@H](Cc2ccc(C(F)(F)F)cc2)N2CC/C=C\C[C@@H](C2=O)N(C)C(=O)CN(C)C(=O)[C@H]([C@@H](C)CC)NC1=O [PP3449] | 0.25 nM | A (a compound having 10 or more and less than 20 is denoted as A) | A (a compound having 10 or more and less than 20 is denoted as A) | 31.9 nM | – | – | – | – | –
12 | CCC[C@H]1C(=O)N[C@@H]([C@@H](C)CC)C(=O)N2CCC[C@H]2C(=O)N(C)[C@H]2C/C=C\CCN(C2=O)[C@@H](Cc2ccc(C(F)(F)F)cc2)C(=O)N(C)CC(=O)N[C@@H](CCc2ccc(C(F)(F)F)c(Cl)c2)C(=O)N2CC[C@H](OC)[C@H]2C(=O)N(C)C2(CCC2)C(=O)N(C)[C@@H](C2CCCC2)C(=O)N(C)[C@H](C(=O)N(C)C)CC(=O)N1C [PP3289] | 0.26 nM | A (a compound having 10 or more and less than 20 is denoted as A) | A (a compound having 10 or more and less than 20 is denoted as A) | 17.6 nM | – | – | – | – | –
13 | CCO[C@@H]1C[C@H]2C(=O)NC3(CCC3)C(=O)N(C)[C@@H](C3CCCC3)C(=O)N(C)[C@H](C(=O)N(C)C)CC(=O)N(C)[C@@H](CC3CC3)C(=O)N[C@@H]([C@@H](C)CC)C(=O)N(C)CC(=O)N(C)[C@H]3C/C=C\CCN(C3=O)[C@@H](Cc3ccc(F)cc3)C(=O)N(C)CC(=O)N[C@@H](CCc3cc(F)c(Cl)c(F)c3)C(=O)N2C1 [PP1479] | – | – | – | – | – | 0.49 nM | A (a compound having 10 or more and less than 20 is denoted as A) | B (a compound having 3 or more and less than 10 is denoted as B) | 140 nM
